In US10166279B2, “Vaccine” (Bergen Teknologioverføring AS, priority 2013, dated 2019):
Peptide text beside a SMILES is read from it.

Target: T1, GC-C receptor (Homo sapiens, UniProt P25092)
T1 construct: endogenous in cells; host or cells: T-84 cells
Test: GC-C receptor T-84 cell assay (toxicity, cGMP levels) of culture filtrates
Type: cell-based
Conditions: T84 cell assay, culture filtrate
Protocol: T-84 cells were seeded and cultured in each well of a 24 well plate. After removing the Dulbecco's modified Eagle's medium (DMEM:F12 (1:1) Lonza Walkersville, Inc.), cells were washed 3 times with 0.5 mL DMEM. Cells were incubated with 0.25 mL DMEM containing 1 mM 3-isobutyl-1-methylxanthine (IBMX) for 10 min at 37° C. 0.1 mL of sample (culture filtrate) was added to each well and incubated for 60 min at 37° C. Following incubation, the reaction medium was aspirated, and the cells were lysed with […] HCl at room temperature for 20 min. The lysates were centrifuged at top speed for 10 min and the cGMP levels were measured in control- and agonist-stimulated cells with a direct cGMP enzyme immunoassay kit (Enzo Life Sciences, Inc.) according to the manufacturer's instructions.
The culture filtrate of each mutant was added to the T-84 cells in duplicate, and a serial dilution of culture filtrates with recombinantly expressed native ST was used to generate a standard curve.
Toxicity measured in culture filtrates is a product of intrinsic toxicity (toxicity per mol) and the concentration of the ST mutant. The same is true for antigenicity. […] Since we have no method for accurately measuring ST (mutant) concentrations in culture filtrates, we are not able to directly measure intrinsic toxicities and antigenicities for the ST mutants.
To circumvent this problem we measure toxicity and antigenicity for the ST mutants relative to native ST. This allows us to describe changes in toxicity and antigenicity in mutant culture filtrates. Next, we divide the change in antigenicity by the change in toxicity for each mutant. If the same culture filtrate has been used to measure toxicity and antigenicity this allows us to eliminate the of the concentration.

T1 sequence (P25092 24-1073): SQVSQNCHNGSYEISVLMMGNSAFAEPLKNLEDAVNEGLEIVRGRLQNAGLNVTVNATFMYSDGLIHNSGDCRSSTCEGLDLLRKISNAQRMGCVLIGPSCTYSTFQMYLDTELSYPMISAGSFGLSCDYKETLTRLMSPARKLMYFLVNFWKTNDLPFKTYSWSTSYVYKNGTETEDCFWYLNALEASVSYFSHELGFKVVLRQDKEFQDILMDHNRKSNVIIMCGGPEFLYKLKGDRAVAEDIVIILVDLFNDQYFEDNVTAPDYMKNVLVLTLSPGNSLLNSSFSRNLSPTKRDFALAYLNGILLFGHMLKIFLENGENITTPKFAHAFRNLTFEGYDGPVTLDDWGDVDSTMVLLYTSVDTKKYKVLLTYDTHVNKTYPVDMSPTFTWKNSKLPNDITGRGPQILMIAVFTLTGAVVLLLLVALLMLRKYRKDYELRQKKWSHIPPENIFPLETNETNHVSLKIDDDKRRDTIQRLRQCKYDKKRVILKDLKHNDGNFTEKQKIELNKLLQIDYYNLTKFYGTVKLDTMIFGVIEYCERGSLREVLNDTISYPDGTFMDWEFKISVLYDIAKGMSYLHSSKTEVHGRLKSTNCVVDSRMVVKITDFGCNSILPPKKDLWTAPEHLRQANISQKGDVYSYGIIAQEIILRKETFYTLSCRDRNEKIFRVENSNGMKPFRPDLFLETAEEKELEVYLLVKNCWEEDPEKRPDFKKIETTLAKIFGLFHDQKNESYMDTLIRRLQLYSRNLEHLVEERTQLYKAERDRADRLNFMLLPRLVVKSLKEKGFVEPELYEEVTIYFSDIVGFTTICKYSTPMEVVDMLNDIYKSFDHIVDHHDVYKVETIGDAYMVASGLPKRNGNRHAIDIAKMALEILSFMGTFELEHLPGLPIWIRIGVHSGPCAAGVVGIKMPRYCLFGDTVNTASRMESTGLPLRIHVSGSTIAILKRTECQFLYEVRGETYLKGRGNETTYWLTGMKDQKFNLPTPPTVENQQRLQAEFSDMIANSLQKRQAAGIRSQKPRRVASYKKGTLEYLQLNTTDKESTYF

Q: `CC(C)C[C@@H]1NC(=O)[C@H](CCC(=O)O)NC(=O)[C@@H]2CSSC[C@@H]3NC(=O)[C@H](C)NC(=O)[C@@H]4CCCN4C(=O)[C@H](C(C)C)NC(=O)[C@H](CSSC[C@H](NC(=O)[C@H](Cc4ccc(O)cc4)NC(=O)[C@H](CC(N)=O)NC(=O)[C@H](CO)NC(=O)[C@H](CO)NC(=O)[C@@H](N)CC(N)=O)C(=O)N2)NC(=O)[C@H](CSSC[C@@H](C(=O)N[C@@H](Cc2ccc(O)cc2)C(=O)O)NC(=O)CNC(=O)[C@H]([C@@H](C)O)NC3=O)NC1=O` [Mutant N12V] (HELM PEPTIDE1{N.S.S.N.Y.C.C.E.L.C.C.V.P.A.C.T.G.C.Y}$PEPTIDE1,PEPTIDE1,6:R3-11:R3|PEPTIDE1,PEPTIDE1,7:R3-15:R3|PEPTIDE1,PEPTIDE1,10:R3-18:R3$$$V2.0) was tested. Which “toxicity relative to native STh” value did it give?
A: 0.01

Q: With `CC(C)C[C@@H]1NC(=O)[C@H](CCC(=O)O)NC(=O)[C@@H]2CSSC[C@@H]3NC(=O)[C@H](C)NC(=O)[C@@H]4CCCN4C(=O)[C@H]([C@@H](C)O)NC(=O)[C@H](CSSC[C@H](NC(=O)[C@H](Cc4ccc(O)cc4)NC(=O)[C@H](CC(N)=O)NC(=O)[C@H](CO)NC(=O)[C@H](CO)NC(=O)[C@@H](N)CC(N)=O)C(=O)N2)NC(=O)[C@H](CSSC[C@@H](C(=O)N[C@@H](Cc2ccc(O)cc2)C(=O)O)NC(=O)CNC(=O)[C@H]([C@@H](C)O)NC3=O)NC1=O` [Mutant N12T] (HELM PEPTIDE1{N.S.S.N.Y.C.C.E.L.C.C.T.P.A.C.T.G.C.Y}$PEPTIDE1,PEPTIDE1,6:R3-11:R3|PEPTIDE1,PEPTIDE1,7:R3-15:R3|PEPTIDE1,PEPTIDE1,10:R3-18:R3$$$V2.0) as the molecule, how does the “toxicity relative to native STh” value read?
A: 0.03

Same assay, conditions: relative to native STh; culture filtrate; ^2 = no detectable toxicity, set to detection limit 0.0014

Q: With `CC(C)C[C@@H]1NC(=O)[C@H](CCC(=O)O)NC(=O)[C@@H]2CSSC[C@@H]3NC(=O)[C@H]([C@@H](C)O)NC(=O)[C@@H]4CCCN4C(=O)[C@H](CC(N)=O)NC(=O)[C@H](CSSC[C@H](NC(=O)[C@H](Cc4ccc(O)cc4)NC(=O)[C@H](CC(N)=O)NC(=O)[C@H](CO)NC(=O)[C@H](CO)NC(=O)[C@@H](N)CC(N)=O)C(=O)N2)NC(=O)[C@H](CSSC[C@@H](C(=O)N[C@@H](Cc2ccc(O)cc2)C(=O)O)NC(=O)CNC(=O)[C@H]([C@@H](C)O)NC3=O)NC1=O` [Mutant A14T] (HELM PEPTIDE1{N.S.S.N.Y.C.C.E.L.C.C.N.P.T.C.T.G.C.Y}$PEPTIDE1,PEPTIDE1,6:R3-11:R3|PEPTIDE1,PEPTIDE1,7:R3-15:R3|PEPTIDE1,PEPTIDE1,10:R3-18:R3$$$V2.0) as the molecule, how does the Toxicity read?
A: < 0.0014^2

Q: With `CC(C)C[C@@H]1NC(=O)[C@H](CCC(=O)O)NC(=O)[C@@H]2CSSC[C@@H]3NC(=O)[C@H](C)NC(=O)[C@@H]4CCCN4C(=O)[C@H](CC(N)=O)NC(=O)[C@H](CSSC[C@H](NC(=O)[C@H](Cc4ccc(O)cc4)NC(=O)[C@H](CC(N)=O)NC(=O)[C@H](CO)NC(=O)[C@H](CO)NC(=O)[C@@H](N)CC(N)=O)C(=O)N2)NC(=O)[C@H](CSSC[C@@H](C(=O)N[C@@H](Cc2ccc(O)cc2)C(=O)O)NC(=O)[C@H](Cc2ccc(O)cc2)NC(=O)[C@H]([C@@H](C)O)NC3=O)NC1=O` [Mutant G17Y] (HELM PEPTIDE1{N.S.S.N.Y.C.C.E.L.C.C.N.P.A.C.T.Y.C.Y}$PEPTIDE1,PEPTIDE1,6:R3-11:R3|PEPTIDE1,PEPTIDE1,7:R3-15:R3|PEPTIDE1,PEPTIDE1,10:R3-18:R3$$$V2.0) as the molecule, how does the Toxicity read?
A: 0.0234

Q: Which Toxicity does the source give for `CC(C)C[C@@H]1NC(=O)[C@H](CCC(=O)O)NC(=O)[C@@H]2CSSC[C@@H]3NC(=O)[C@H](C)NC(=O)[C@H](C)NC(=O)[C@H](CC(N)=O)NC(=O)[C@H](CSSC[C@H](NC(=O)[C@H](Cc4ccc(O)cc4)NC(=O)[C@H](CC(N)=O)NC(=O)[C@H](CO)NC(=O)[C@H](CO)NC(=O)[C@@H](N)CC(N)=O)C(=O)N2)NC(=O)[C@H](CSSC[C@@H](C(=O)N[C@@H](Cc2ccc(O)cc2)C(=O)O)NC(=O)CNC(=O)[C@H]([C@@H](C)O)NC3=O)NC1=O` [Mutant P13A] (HELM PEPTIDE1{N.S.S.N.Y.C.C.E.L.C.C.N.A.A.C.T.G.C.Y}$PEPTIDE1,PEPTIDE1,6:R3-11:R3|PEPTIDE1,PEPTIDE1,7:R3-15:R3|PEPTIDE1,PEPTIDE1,10:R3-18:R3$$$V2.0) here?
A: < 0.0014^2

Q: `CC(C)C[C@@H]1NC(=O)[C@H](CCC(=O)O)NC(=O)[C@@H]2CSSC[C@@H]3NC(=O)[C@H](CCC(N)=O)NC(=O)[C@@H]4CCCN4C(=O)[C@H](CC(N)=O)NC(=O)[C@H](CSSC[C@H](NC(=O)[C@H](Cc4ccc(O)cc4)NC(=O)[C@H](CC(N)=O)NC(=O)[C@H](CO)NC(=O)[C@H](CO)NC(=O)[C@@H](N)CC(N)=O)C(=O)N2)NC(=O)[C@H](CSSC[C@@H](C(=O)N[C@@H](Cc2ccc(O)cc2)C(=O)O)NC(=O)CNC(=O)[C@H]([C@@H](C)O)NC3=O)NC1=O` [Mutant A14Q] (HELM PEPTIDE1{N.S.S.N.Y.C.C.E.L.C.C.N.P.Q.C.T.G.C.Y}$PEPTIDE1,PEPTIDE1,6:R3-11:R3|PEPTIDE1,PEPTIDE1,7:R3-15:R3|PEPTIDE1,PEPTIDE1,10:R3-18:R3$$$V2.0) was tested. Which Toxicity did it give?
A: < 0.0014^2

Q: Which Toxicity does the source give for `CC(C)C[C@@H]1NC(=O)[C@H](CCC(=O)O)NC(=O)[C@@H]2CSSC[C@@H]3NC(=O)[C@H](C)NC(=O)[C@@H]4CCCN4C(=O)[C@H](CCCCN)NC(=O)[C@H](CSSC[C@H](NC(=O)[C@H](Cc4ccc(O)cc4)NC(=O)[C@H](CC(N)=O)NC(=O)[C@H](CO)NC(=O)[C@H](CO)NC(=O)[C@@H](N)CC(N)=O)C(=O)N2)NC(=O)[C@H](CSSC[C@@H](C(=O)N[C@@H](Cc2ccc(O)cc2)C(=O)O)NC(=O)CNC(=O)[C@H]([C@@H](C)O)NC3=O)NC1=O` [Mutant N12K] (HELM PEPTIDE1{N.S.S.N.Y.C.C.E.L.C.C.K.P.A.C.T.G.C.Y}$PEPTIDE1,PEPTIDE1,6:R3-11:R3|PEPTIDE1,PEPTIDE1,7:R3-15:R3|PEPTIDE1,PEPTIDE1,10:R3-18:R3$$$V2.0) here?
A: 0.5113

Q: `CC[C@H](C)[C@@H]1NC(=O)[C@@H]2CCCN2C(=O)[C@H](CC(N)=O)NC(=O)[C@@H]2CSSC[C@H](NC(=O)[C@H](Cc3ccc(O)cc3)NC(=O)[C@H](CC(N)=O)NC(=O)[C@H](CO)NC(=O)[C@H](CO)NC(=O)[C@@H](N)CC(N)=O)C(=O)N[C@H]3CSSC[C@H](NC1=O)C(=O)N[C@@H]([C@@H](C)O)C(=O)NCC(=O)N[C@H](C(=O)N[C@@H](Cc1ccc(O)cc1)C(=O)O)CSSC[C@H](NC(=O)[C@H](CC(C)C)NC(=O)[C@H](CCC(=O)O)NC3=O)C(=O)N2` [Mutant A14I] (HELM PEPTIDE1{N.S.S.N.Y.C.C.E.L.C.C.N.P.I.C.T.G.C.Y}$PEPTIDE1,PEPTIDE1,6:R3-11:R3|PEPTIDE1,PEPTIDE1,7:R3-15:R3|PEPTIDE1,PEPTIDE1,10:R3-18:R3$$$V2.0) was tested. Which Toxicity did it give?
A: < 0.0014^2

Q: How did the Toxicity turn out when `CSCC[C@H](N)C(=O)N[C@@H](CO)C(=O)N[C@@H](CO)C(=O)N[C@@H](CC(N)=O)C(=O)N[C@@H](Cc1ccc(O)cc1)C(=O)N[C@H]1CSSC[C@@H]2NC(=O)[C@@H]3CSSC[C@@H](C(=O)N[C@@H](Cc4ccc(O)cc4)C(=O)O)NC(=O)CNC(=O)[C@H]([C@@H](C)O)NC(=O)[C@H](CSSC[C@H](NC1=O)C(=O)N[C@@H](CCC(=O)O)C(=O)N[C@@H](CC(C)C)C(=O)N3)NC(=O)[C@H](C)NC(=O)[C@@H]1CCCN1C(=O)[C@H](CC(N)=O)NC2=O` [Mutant N01M] (HELM PEPTIDE1{M.S.S.N.Y.C.C.E.L.C.C.N.P.A.C.T.G.C.Y}$PEPTIDE1,PEPTIDE1,6:R3-11:R3|PEPTIDE1,PEPTIDE1,7:R3-15:R3|PEPTIDE1,PEPTIDE1,10:R3-18:R3$$$V2.0) was run?
A: 1.8910

Q: For `CC(C)C[C@@H]1NC(=O)[C@H](CCCNC(=N)N)NC(=O)[C@@H]2CSSC[C@@H]3NC(=O)[C@H](C)NC(=O)[C@@H]4CCCN4C(=O)[C@H](CC(N)=O)NC(=O)[C@H](CSSC[C@H](NC(=O)[C@H](Cc4ccc(O)cc4)NC(=O)[C@H](CC(N)=O)NC(=O)[C@H](CO)NC(=O)[C@H](CO)NC(=O)[C@@H](N)CC(N)=O)C(=O)N2)NC(=O)[C@H](CSSC[C@@H](C(=O)N[C@@H](Cc2ccc(O)cc2)C(=O)O)NC(=O)CNC(=O)[C@H]([C@@H](C)O)NC3=O)NC1=O` [Mutant E08R] (HELM PEPTIDE1{N.S.S.N.Y.C.C.R.L.C.C.N.P.A.C.T.G.C.Y}$PEPTIDE1,PEPTIDE1,6:R3-11:R3|PEPTIDE1,PEPTIDE1,7:R3-15:R3|PEPTIDE1,PEPTIDE1,10:R3-18:R3$$$V2.0), which Toxicity is on record?
A: 0.0021

Q: Which Toxicity does the source give for `CC(C)C[C@@H]1NC(=O)[C@H](CCC(=O)O)NC(=O)[C@@H]2CSSC[C@@H]3NC(=O)[C@H](CCCNC(=N)N)NC(=O)[C@@H]4CCCN4C(=O)[C@H](CC(N)=O)NC(=O)[C@H](CSSC[C@H](NC(=O)[C@H](Cc4ccc(O)cc4)NC(=O)[C@H](CC(N)=O)NC(=O)[C@H](CO)NC(=O)[C@H](CO)NC(=O)[C@@H](N)CC(N)=O)C(=O)N2)NC(=O)[C@H](CSSC[C@@H](C(=O)N[C@@H](Cc2ccc(O)cc2)C(=O)O)NC(=O)CNC(=O)[C@H]([C@@H](C)O)NC3=O)NC1=O` [Mutant A14R] (HELM PEPTIDE1{N.S.S.N.Y.C.C.E.L.C.C.N.P.R.C.T.G.C.Y}$PEPTIDE1,PEPTIDE1,6:R3-11:R3|PEPTIDE1,PEPTIDE1,7:R3-15:R3|PEPTIDE1,PEPTIDE1,10:R3-18:R3$$$V2.0) here?
A: < 0.0014^2
